Laboratory results published in PubChem BioAssay AID248 (DTP/NCI, 2004).
“And” between values parts separate entries of the source, which are not always exact repeats. Identical values can stand only once. Inconclusive results and toxic doses are left out. No stated cut-off is given here; in the data, active means T/C of 150% or more; inactive means T/C below 125%.

System: L1210 leukemia ip in BDF1 mice, survival T/C
Assay: NCI In Vivo Anticancer Drug Screen. Data for tumor model L1210 Leukemia (intraperitoneal) in B6D2F1 (BDF1) mice
Details: endpoint: mean survival time, higher = longer survival
Procedure, shortened: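 Antitumor effect is assessed in tumor-bearing animals. Survival in the compound arm is compared with a vehicle-dosed control arm and expressed as their quotient.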

[1] = dose: 25.0 mg/kg/injection, schedule: Q01DX009 (ip), vehicle: Klucel (hydroxypropylcellulose) (HPC)
[2] = dose: 50.0 mg/kg/injection, schedule: Q01DX009 (ip), vehicle: Klucel (hydroxypropylcellulose) (HPC)
[3] = dose: 50.0 mg/kg/injection, schedule: Q01DX001 (ip), vehicle: carboxymethylcellulose (CMC)
[4] = dose: 100.0 mg/kg/injection, schedule: Q01DX001 (ip), vehicle: carboxymethylcellulose (CMC)
[5] = dose: 200.0 mg/kg/injection, schedule: Q01DX001 (ip), vehicle: carboxymethylcellulose (CMC)
[6] = dose: 400.0 mg/kg/injection, schedule: Q01DX001 (ip), vehicle: carboxymethylcellulose (CMC)
[7] = dose: 100.0 mg/kg/injection, schedule: Q01DX009 (ip), vehicle: Klucel (hydroxypropylcellulose) (HPC)
[8] = dose: 75.0 mg/kg/injection, schedule: Q01DX001 (ip), vehicle: saline
[9] = dose: 150.0 mg/kg/injection, schedule: Q01DX001 (ip), vehicle: saline
[10] = dose: 100.0 mg/kg/injection, schedule: Q04DX003 (ip), vehicle: Klucel (hydroxypropylcellulose) (HPC)
[11] = dose: 200.0 mg/kg/injection, schedule: Q01DX009 (ip), vehicle: Klucel (hydroxypropylcellulose) (HPC)
[12] = dose: 200.0 mg/kg/injection, schedule: Q04DX003 (ip), vehicle: Klucel (hydroxypropylcellulose) (HPC)
[13] = dose: 400.0 mg/kg/injection, schedule: Q04DX003 (ip), vehicle: Klucel (hydroxypropylcellulose) (HPC)
[14] = dose: 100.0 mg/kg/injection, schedule: Q01DX001 (ip), vehicle: saline
[15] = dose: 200.0 mg/kg/injection, schedule: Q01DX001 (ip), vehicle: saline
[16] = dose: 400.0 mg/kg/injection, schedule: Q01DX001 (ip), vehicle: saline
[17] = dose: 100.0 mg/kg/injection, schedule: Q04DX003 (ip), vehicle: saline with Tween-80
[18] = dose: 200.0 mg/kg/injection, schedule: Q04DX003 (ip), vehicle: saline with Tween-80
[19] = dose: 400.0 mg/kg/injection, schedule: Q04DX003 (ip), vehicle: saline with Tween-80

Measured: T/C

COC1/C=C\OC2(C)Oc3c(C)c(O)c4c(O)c(c(/C=N\OCCCc5ccccc5)c(O)c4c3C2=O)NC(=O)/C(C)=C\C=C/C(C)C(O)C(C)C(O)C(C)C(OC(C)=O)C1C (stereo unspecified)
inactive: dose: 25.0 mg/kg/injection, schedule: Q04DX003 (ip), vehicle: water 96 % of control | dose: 50.0 mg/kg/injection, schedule: Q04DX003 (ip), vehicle: water 104 % of control | dose: 100.0 mg/kg/injection, schedule: Q04DX003 (ip), vehicle: water 100 % of control | dose: 200.0 mg/kg/injection, schedule: Q04DX003 (ip), vehicle: water 100 % of control

CCOC(=O)NN1C(=O)c2cccc3c([N+](=O)[O-])ccc(c23)C1=O
inactive: dose: 12.5 mg/kg/injection, schedule: Q01DX009 (ip), vehicle: Klucel (hydroxypropylcellulose) (HPC) 105 % of control | [1] 94 % of control | [2] 96 % of control

CN(C)c1ccc(/C=N/Nc2nnc(N/N=C/c3ccc(N(C)C)cc3)c3ccccc23)cc1
inactive: [3] 98 % of control and 91 % of control | [4] 86 % of control | [5] 93 % of control and 91 % of control | [6] 100 % of control and 104 % of control

CCCCC1C(=O)N=C2C=CC=CN2C1=O (stereo unspecified)
inactive: [1] 102 % of control | [2] 100 % of control | [7] 110 % of control | dose: 100.0 mg/kg/injection, schedule: Q04DX003 (ip), vehicle: other 104 % of control | dose: 200.0 mg/kg/injection, schedule: Q04DX003 (ip), vehicle: other 102 % of control

CCN(CC)c1ccc(N=Nc2ncn[nH]2)c(O)c1
inactive: dose: 100.0 mg/kg/injection, schedule: Q01DX001 (ip), vehicle: saline with Tween-80 100 % of control | dose: 200.0 mg/kg/injection, schedule: Q01DX001 (ip), vehicle: saline with Tween-80 98 % of control | dose: 400.0 mg/kg/injection, schedule: Q01DX001 (ip), vehicle: saline with Tween-80 88 % of control

Clc1ccc(/C=C/c2nc(Cl)c(-c3ccc(Cl)cc3)c(Cl)n2)cc1
inactive: [8] 105 % of control | [9] 92 % of control | dose: 150.0 mg/kg/injection, schedule: Q04DX003 (ip), vehicle: Klucel (hydroxypropylcellulose) (HPC) 113 % of control | dose: 300.0 mg/kg/injection, schedule: Q01DX001 (ip), vehicle: saline 97 % of control | dose: 300.0 mg/kg/injection, schedule: Q04DX003 (ip), vehicle: Klucel (hydroxypropylcellulose) (HPC) 92 % of control

CC(=O)NC1CCC(CC2CCCCC2)CC1 (stereo unspecified)
inactive: [7] 101 % of control | [10] 93 % of control and 102 % of control | [11] 116 % of control | [12] 103 % of control and 93 % of control | [13] 114 % of control and 93 % of control

N=C(N)C[n+]1ccccc1
inactive: [14] 98 % of control | dose: 100.0 mg/kg/injection, schedule: Q04DX003 (ip), vehicle: saline 95 % of control | [15] 109 % of control | dose: 200.0 mg/kg/injection, schedule: Q04DX003 (ip), vehicle: saline 111 % of control | [16] 104 % of control | dose: 400.0 mg/kg/injection, schedule: Q04DX003 (ip), vehicle: saline 89 % of control

O=S1(=O)C(c2ccccc2)=Cc2cccn2-c2ccccc21
inactive: [10] 95 % of control | [12] 104 % of control | [13] 98 % of control

CSc1cc2c(cc1NC(C)=O)C(=O)c1ccccc1-2
inactive: [4] 90 % of control | [5] 106 % of control | [6] 109 % of control

C/C(=C/c1ccccc1)OC(=O)c1ccccc1
inactive: [3] 87 % of control | [4] 86 % of control

CS(=O)(=O)n1c(C(Cl)c2ccccc2)nc2ccccc21 (stereo unspecified)
inactive: [14] 102 % of control | [15] 104 % of control | [16] 120 % of control

COC(=O)c1ccc(OC(=O)Nc2cc(Cl)ccc2C)cc1
inactive: dose: 100.0 mg/kg/injection, schedule: Q01DX009 (ip), vehicle: saline with Tween-80 106 % of control | dose: 200.0 mg/kg/injection, schedule: Q01DX009 (ip), vehicle: saline with Tween-80 89 % of control

COc1cc(C)c(O)c(C[P+](c2ccccc2)(c2ccccc2)c2ccccc2)c1
inactive: [17] 91 % of control | [18] 94 % of control

CCNC(=O)C1C2C=CC(C2)C1C(=O)NCC (stereo unspecified)
inactive: [17] 91 % of control | [18] 96 % of control | [19] 87 % of control

C[Si](C)(C)C(c1ccccc1)(c1ccccc1)c1ccccc1
inactive: dose: 25.6 mg/kg/injection, schedule: Q04DX002 (ip), vehicle: saline with Tween-80 101 % of control | dose: 64.0 mg/kg/injection, schedule: Q04DX002 (ip), vehicle: saline with Tween-80 90 % of control | [18] 87 % of control | dose: 400.0 mg/kg/injection, schedule: Q04DX002 (ip), vehicle: saline with Tween-80 90 % of control | [19] 88 % of control

CC(C)(C)c1cccc(S(=O)(=O)Oc2ccccc2[N+](=O)[O-])c1
inactive: [7] 103 % of control | [11] 93 % of control | dose: 400.0 mg/kg/injection, schedule: Q01DX009 (ip), vehicle: Klucel (hydroxypropylcellulose) (HPC) 95 % of control

CN(CC(=O)O)Cc1oc(CO)cc(=O)c1O
inactive: [14] 110 % of control | [15] 95 % of control | [16] 95 % of control

CCOC(=O)N\C(N)=N/N=C(C)\C=N\N=C(/N)NC(=O)OCC
inactive: dose: 15.0 mg/kg/injection, schedule: Q01DX Z (ip), vehicle: carboxymethylcellulose (CMC) 95 % of control | dose: 30.0 mg/kg/injection, schedule: Q01DX Z (ip), vehicle: carboxymethylcellulose (CMC) 101 % of control | dose: 60.0 mg/kg/injection, schedule: Q01DX Z (ip), vehicle: carboxymethylcellulose (CMC) 106 % of control | dose: 120.0 mg/kg/injection, schedule: Q01DX Z (ip), vehicle: carboxymethylcellulose (CMC) 97 % of control

c1cc[c]([Pb]([S]c2ccccn2)([c]2ccccc2)[c]2ccccc2)cc1
inactive: dose: 0.78 mg/kg/injection, schedule: Q01DX009 (ip), vehicle: Klucel (hydroxypropylcellulose) (HPC) 96 % of control | dose: 1.56 mg/kg/injection, schedule: Q01DX009 (ip), vehicle: Klucel (hydroxypropylcellulose) (HPC) 94 % of control | dose: 3.12 mg/kg/injection, schedule: Q01DX009 (ip), vehicle: Klucel (hydroxypropylcellulose) (HPC) 106 % of control and 89 % of control | dose: 25.0 mg/kg/injection, schedule: Q04DX002 (ip), vehicle: Klucel (hydroxypropylcellulose) (HPC) 100 % of control | dose: 50.0 mg/kg/injection, schedule: Q04DX002 (ip), vehicle: Klucel (hydroxypropylcellulose) (HPC) 88 % of control

c1cc[n+](CCNCC[n+]2ccccc2)cc1
inactive: [8] 93 % of control | [9] 94 % of control

CC1CN=C(c2c(O)ccc3ccccc23)S1 (stereo unspecified)
inactive: dose: 100.0 mg/kg/injection, schedule: Q04DX002 (ip), vehicle: gum acacia 96 % of control | dose: 200.0 mg/kg/injection, schedule: Q04DX002 (ip), vehicle: gum acacia 93 % of control | dose: 400.0 mg/kg/injection, schedule: Q04DX002 (ip), vehicle: gum acacia 90 % of control

O=C(Nc1ccccc1)C(=O)c1ccccc1
inactive: dose: 100.0 mg/kg/injection, schedule: Q01DX001 (ip), vehicle: Klucel (hydroxypropylcellulose) (HPC) 98 % of control | dose: 200.0 mg/kg/injection, schedule: Q01DX001 (ip), vehicle: Klucel (hydroxypropylcellulose) (HPC) 93 % of control | dose: 400.0 mg/kg/injection, schedule: Q01DX001 (ip), vehicle: Klucel (hydroxypropylcellulose) (HPC) 106 % of control
